# Measured values published in patent US20240092800A1, “USP13 INHIBITORS AND METHODS OF USE THEREOF” (GEORGETOWN UNIVERSITY, priority 2021, published 2024).
# Experiments:
# human alpha-synuclein = experiment: Alpha-synuclein levels in TgA53T mice (WB, ELISA, DAB staining); format: in vivo, mouse; settings: 10 mg/kg or 40 mg/kg I.P. daily for 7 days, vs DMSO
# [1] = tested on: tyrosine hydroxylase (TH); experiment: Tyrosine hydroxylase staining in striatum of TgA53T mice; format: in vivo, mouse; settings: 40 mg/Kg I.P. daily for 7 days, vs DMSO
# Protocol: Immunohistology. Animals were deeply anesthetized with a mixture of xylazine and ketamine (1:8), washed with normal saline for 1 min and then perfused with 4% paraformaldehyde (PFA) for 15-20 min. Brains were quickly dissected out and immediately stored in 4% PFA for 24 h at 4° C. and then transferred to 30% sucrose at 4° C. for 48 h. Brains were cut using a cryostat microtome into 20 μm thick coronal sections and stored at −20° C.
# Immunohistochemistry was performed on the 20 μm thick brain sections for evaluation of ubiquitination of alpha-synuclein. The antibodies used were human alpha-synuclein monoclonal antibody (Thermo Fisher, AHB0261, Rockford, IL, USA) and ubiquitin polyclonal antibody (Thermo Fisher, PA3-16717, Rockford, IL, USA). The optic densitometry of co-localization of ubiquitin with alpha-synuclein was measured using Image J. Tyrosine hydroxylase (TH) is the limiting enzyme in DA synthesis, so probing for TH+ neurons will help to evaluate the status of DA producing neurons in the SN and their terminals in the striatum. We performed fluorescent staining of TH+ in striatum and conducted optic densitometry measurement of striatal DA terminals. Nuclear staining with 4,6-diamidino-2-phenylindole was performed according to manufacturer's protocols (Life Technologies, Rockford, IL, USA).
# [2] = tested on: human SHSY5Y neuroblastoma cells; experiment: Cell viability by MTT and LDH assays; settings: 5 hours, up to 1 mM concentration
# Protocol: Human SHSY-5Y neuroblastoma cells were cultured in Dulbecco's Modified Eagle's Medium (DMEM) (ThermoFisher Scientific; Waltham, MA) with 10% Fetal Bovine Serum (FBS) (ThermoFisher) and 1% Penicillin-Streptomycin (PenStrep, ThermoFisher) and incubated at 37° C. under atmospheric oxygen concentrations (21%) with 5% CO2. SHSY-5Y cells were cultured in DMEM with Ham's F12 (1:1) (ThermoFisher) with 20% FBS, 1% PenStrep. Cells were plated at a density tailored to reach 70-80% confluence at the beginning of every experiment. SH-SY5Y cells were transiently transfected for 24 hours with human wild-type α-synuclein using Fugene HD transfection reagent (Promega; Madison, WI) before fresh culture media and drug were added.
# Cell viability was determined via lactate dehydrogenase assay on culture media, (ThermoFisher) and MTT assay on plated cells (ThermoFisher).
structure (smiles),measurement,setting,value
Fc1ccc2nccc(OCc3ccccc3)c2c1 [4-(Benzyloxy)-6-fluoroquinoline],human alpha-synuclein in midbrain lysates by WB,human alpha-synuclein,significantly reduced
same,staining of tyrosine hydroxylase (TH),[1],did not show any noticeable effects
same,cell death in two viability assays (MTT and LDH),[2],do not cause cell death
